Earlier results as cited in PMC3074590 (Science (New York, N.Y.), 2010).

Tested on: CXCR4
Settings: characterized previously; no reference printed at this statement

CC1(C)CN2C(CSC(=NC3CCCCC3)NC3CCCCC3)=CSC2=N1 [IT1t]
mode of inhibition of CXCL12: competitive inhibitors of CXCL12
